Reference: patent US20230285570A1, “THERAPEUTICALLY USEFUL CURE-PRO MOLECULES FOR E3 LIGASE MEDIATED DEGRADATION OF PROTEINS, AND METHODS OF MAKING AND USING THEM” (CORNELL UNIVERSITY, priority 2020, published 2023)
“Also recorded” adds a separate entry of the source.

Columns and labels:
Type in all cases: cell-based
c-MYC [1] = biological target: T1, c-MYC (Homo sapiens, UniProt P01106); test: CURE-PRO-mediated c-MYC degradation in MCF7 cells, Western blot; set-up: endogenous in cells
Method: (§1) Namalwa, Ramosm HeLa, MCF7, or HT29 HCT116 cells (2.5-3×10^6) were treated for 24 hours with the indicated compounds solubilized in DMSO. The cells were washed in ice-cold PBS and were then lysed in RIPA lysis buffer (150 mM NaCl, 5 mM EDTA, 1% NP-40, 0.5% sodium deoxycholate, 0.1% SDS, 50 mM Tris, pH 8.0.) with Roche protease inhibitor complete cocktail and phosphatase inhibitors (10 mM sodium fluoride, 10 mM sodium pyrophosphate, 1 mM sodium orthovanadate and 20 mM β-glycerophosphate). The total protein concentrations were determined by Bradford Protein Assay (Pierce) and 10-20 μg of protein was loaded onto 4-15% Tris-Glycine gradient gels (Biorad). After standard gel electrophoresis, the separated proteins were transferred to PVDF membrane by wet transfer. The immunoblots were then blocked for 1 hour in 5% skim milk in TBST or 5% BSA in TBST, according to manufacturer's instructions, before an overnight incubation at 4° C. with indicated antibodies and membranes. Membranes were then incubated with the appropriate horseradish peroxidase-conjugated secondary antibodies (1:5,000 dilution) for 1 h at room temperature and the bands were visualized using the Clarity Max Western ECL Substrate (Biorad) and the ChemiDoc Imaging System (Biorad). Signal was detected with ECL Western Blotting Substrate (Pierce) and X-ray film processed with a Konica SRX-101 X-ray film processor or captured by Bio-Rad's Chemidoc Imaging system.
MCF7 cells (3×10^6) were treated for 24 h with the compounds solubilized in DMSO. Compounds were added at 100 nM-10 μM each. Standardized protein samples were electrophoresed and imaged as described in the immunoblotting section above. c-MYC monomer, MYC-E33 (FIG. 99) (a 10058-F4 derivatives comprising boronic acid linkers), and VHL ligands, 8304 and 8305 (VH-298 derivatives comprising diol linkers) were combined in a 1:1 ratio.

c-MYC [2] = biological target: T1, c-MYC; test: CURE-PRO-mediated c-MYC degradation in HCT1116 cells, Western blot or WES; set-up: endogenous in cells; host or cells: HT29; details: 1:1 with MDM2 ligand 8312, HCT1116, 24 h, 10 nM-10 μM each
Method: as §1
WES Simple analysis was performed on WES system (ProteinSimple-Biotechne) according to the manufacturer's instructions. Total protein concentrations of cell lysates were determined by the Pierce BCA kit (Thermo Fisher). 3 μL of 0.3 μg/μL of the protein lysate was loaded onto a 12- to 230-kDa WES assay plate (ProteinSimple) where 300 nL sample was withdrawn through a capillary, subjected to electrophoretic separation of proteins by size, and followed by the simultaneous, HRP-based detection of proteins using the Anti-Rabbit Detection Module (Proteinsimple: #DM-001). The electropherograms were checked then the automatic peak detection was manually corrected if it was required.
HCT1116 cells (2.5×10^6) were treated for 24 h with the compounds solubilized in DMSO. Compounds were added at 10 nM-10 μM each. Standardized protein samples were electrophoresed and imaged as described in the immunoblotting or WES (Proteinsimple) sections above. c-MYC monomers, MYC-N20 (FIG. 100, a 10074-G5 derivative comprising diol linkers), and MYC-N10 (FIG. 101), MYC-N6 (FIG. 102), and MYC-N9 (FIG. 103) (10058-F4 derivatives comprising diol linkers), and MDM2 ligands, 8310 and 8312 (Nutlin 3a derivatives comprising boronic acid linkers) were combined in a 1:1 ratio.
HCT1116 cells (2.5×10^6) were treated for 24 h with the compounds solubilized in DMSO. Compounds were added at 1 μM-10 μM each.

c-MYC [3] = biological target: T1, c-MYC; test: Summary of C-MYC degradation by CURE-PRO pairs, estimated from Western Blot or WES; set-up: endogenous in cells; host or cells: HT29; details: Table 11, aromatic 1,2-diol MYC ligand + 8310
Procedure, shortened: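 Degradation read-out from immunoblot with ECL, or WES capillary electrophoresis with HRP detection, of RIPA lysates. Cells (Namalwa, Ramos, HeLa, MCF7, HT29 or HCT116) were exposed to DMSO-solubilized compounds for 24 h; a check mark marks 30% to 70% or higher degradation.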

c-MYC [4] = biological target: T1, c-MYC; test: CURE-PRO-mediated c-MYC degradation in HT29 cells, Western blot; set-up: endogenous in cells; host or cells: HT29
Method: as §1
HT29 cells (2.5×10^6) were treated for 24 h with the compounds solubilized in DMSO. Compounds were added at 10 nM-10 μM each, as indicated in the description of the figures. Standardized protein samples were electrophoresed and imaged as described in the immunoblotting section above. c-MYC monomers (10058-F4 derivatives comprising catechol linkers), and CRBN ligands, 8048 and 8049 (pomalidomide derivatives comprising boronic acid linkers) combined in a 1:1 ratio.
HT29 cells (2.5×10^6) were treated for 24 h with the compounds solubilized in DMSO. Compounds were added at 100 nM-10 μM each.
(§2) HT29 cells (2.5×10^6) were treated for 24 h with the compounds solubilized in DMSO. Compounds were added at 100 nM-10 μM each. Standardized protein samples were electrophoresed and imaged as described in the immunoblotting section above. c-MYC monomer, MYC-E1, (a 10058-F4 derivative comprising boronic acid linkers), and CRBN ligands, 8046, 8047 and 8066 (pomalidomide derivatives comprising diol linkers) combined in a 1:1 ratio.
as §2, with “monomers, MYC-E6 (FIG. 90), MYC-E10 (FIG. 91), and MYC-E16 (FIG. 92) (10074-G5 derivatives” for “monomer, MYC-E1, (a 10058-F4 derivative”
(§3) HT29 cells (2.5×10^6) were treated for 24 h with the compounds solubilized in DMSO. Compounds were added at 10 nM-10 μM each. Standardized protein samples were electrophoresed and imaged as described in the immunoblotting section above. c-MYC monomer, MYC-N16 (FIG. 93) (10074-G5 derivatives comprising diol linkers), and VHL ligands, 8297 and 8298 (VH-298 derivatives comprising boronic acid linkers) were combined in a 1:1 ratio.
as §3, with “monomers, MYC-E7” for “monomer, MYC-N16”, “96), MYC-E10 (FIG. 97), and MYC-E17 (FIG. 98),” for “93)”, “boronic acid” for “diol”, “diol” for “boronic acid”

c-MYC [5] = biological target: T1, c-MYC; test: CURE-PRO-mediated c-MYC degradation in HCT1116 cells, Western blot or WES; set-up: HT29 cells (2.5×10^6) were treated for 24 h with the compounds solubilized in DMSO; endogenous in cells; host or cells: HT29; details: 1:1 with MDM2 ligand 8310, HCT1116, 24 h, 10 nM-10 μM each

T1 sequence (P01106 whole entry): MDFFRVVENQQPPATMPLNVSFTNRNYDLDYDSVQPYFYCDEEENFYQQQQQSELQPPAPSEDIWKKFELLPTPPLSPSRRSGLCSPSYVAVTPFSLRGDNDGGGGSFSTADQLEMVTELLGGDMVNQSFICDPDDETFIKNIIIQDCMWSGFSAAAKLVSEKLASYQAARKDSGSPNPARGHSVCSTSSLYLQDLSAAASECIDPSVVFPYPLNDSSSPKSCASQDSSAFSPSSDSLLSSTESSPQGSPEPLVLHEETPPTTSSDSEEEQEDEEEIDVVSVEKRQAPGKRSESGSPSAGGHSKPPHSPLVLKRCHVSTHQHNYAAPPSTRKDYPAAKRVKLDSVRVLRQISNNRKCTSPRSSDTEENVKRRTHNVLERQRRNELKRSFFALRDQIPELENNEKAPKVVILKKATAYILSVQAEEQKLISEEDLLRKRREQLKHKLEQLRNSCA

CCc1ccc(/C=C2\SC(=O)N(CCNC(=O)c3ccc(B(O)O)cc3)C2=O)cc1 [MYC-E33]
c-MYC degradation (c-MYC [1]; 1:1 with VHL ligand 8304, MCF7, 24 h, 100 nM-10 μM each): caused partial degradation of c-MYC
c-MYC degradation (c-MYC [1]; 1:1 with VHL ligand 8305, MCF7, 24 h, 100 nM-10 μM each): no loss of c-MYC protein was observed
c-MYC degradation (c-MYC [1]; c-MYC monomer alone, MCF7, 24 h, 100 nM-10 μM): no loss of c-MYC protein was observed

CCc1ccc(/C=C2\SC(=O)N(CCOCCNC(=O)c3ccc(O)c(O)c3)C2=O)cc1 [MYC-N9]
c-MYC degradation (c-MYC [2]): caused degradation of c-MYC at higher concentrations
Degradation of C-MYC, combination with MDM2 ligand 8310 (c-MYC [3]): √ (A black check mark indicates efficacy of 30% to 70% or higher protein degradation)
c-MYC degradation (c-MYC [4]; 1:1 with CRBN ligand 8048, HT29, 24 h, 10 nM-10 μM each): some degradation is noted; also recorded: caused degradation of c-MYC
c-MYC degradation (c-MYC [4]; 1:1 with CRBN ligand 8049, HT29, 24 h, 10 nM-10 μM each): produces greater c-MYC degradation than 8048; also recorded: caused degradation of c-MYC
c-MYC degradation (c-MYC [4]; c-MYC monomer alone, HT29, 24 h, 10 nM-10 μM): there is no degradation of c-MYC
c-MYC degradation (c-MYC [5]): caused degradation of c-MYC at higher concentrations
